The conditions of series [1]: either agent alone or in combination. How it is done: Mice were dosed orally by gavage with vehicle (control group) or compound at various doses twice-daily (b.i.d.) during the week and once-daily (q.d.) on weekends. Dosing was continued for 11 consecutive days, depending on the kinetics of tumor growth and size of tumors in vehicle-treated control mice. If tumors in the control mice reached 10% of body weight (˜2.0 grams), the study was to be terminated. […] During the study, tumor growth was measured three times-a-week (M, W, F) using electronic Vernier calipers. Tumor volume (mm^3) was calculated using the formula […], where L=length (mm) and W=width (shortest distance in mm) of the tumor. […] Mice were closely examined daily at each dose for overt clinical signs of adverse, drug-related side effects. […]
If tumors in the control mice reached ˜10% of body weight (˜2.0 grams), the study was to be terminated. […] During the study, tumor growth was measured three times-a-week (M, W, F) using electronic Vernier calipers. […] Body weight was measured three times-a-week and a loss of body weight >10% was used as an indication of lack of compound tolerability. […]
Dosing was continued for sixteen consecutive days. Tumor growth was measured three times-a-week (Monday, Wednesday, Friday) using electronic Vernier calipers. Body weight was measured three times-a-week and a loss of body weight >10% was used as an indication of lack of compound tolerability.

For series [2] the following is noted: patients with relapsed and refractory AML; cited from earlier work.
The test system of series [3] is Baf3-FLT3 cells. The series can be described thus: 72-hour cell proliferation assay and combination index analysis, Baf3-FLT3. It counts as cell-based, murine. To be noted: with single sub-IC50 dose of FLT3 inhibitor Compound A (100 nM). On the procedure: (§1) Dose responses for the individual compounds alone were determined for each cell line using a standard 72-hour cell proliferation assay (see FIGS. 6.1-6.8). […] Each of these chemically distinct compounds alone has potential for the treatment of disorders related to FLT3, such as FLT3 positive AML. […] The FLT3 inhibitors tested had no effect on THP-1 proliferation. […] (See FIGS. 10.1-10.8 and Tables 1-3, hereafter.)
(§2) To statistically evaluate the synergy of a FLT3 inhibitor and an FTI in FLT3 dependent cell lines, dosing combinations were evaluated by the method of Chou and Talalay. See Chou T C, Talalay P. (1984) “Quantitative analysis of dose-effect relationships: the combined effects of multiple drugs or enzyme inhibitors.” Adv Enzyme Regul. 22:27-55. Using this method inhibitors are added simultaneously to cells in a ratio of the IC50 dose of each compound alone. […] Using this method, multiple FTI and FLT3 combinations were evaluated. […]
(§3) Combination Index Analysis. To determine growth inhibition synergy of a FTI and FLT3 inhibitor combination based on the method of Chou and Talalay (Chou and Talalay. See Chou T C, Talalay P. (1984) “Quantitative analysis of dose-effect relationships: the combined effects of multiple drugs or enzyme inhibitors.” Adv Enzyme Regul. 22:27-55.), fixed ratio combination dosing with isobolar statistical analysis was performed. […]

Series [4] concerns MV4-11 AML cells. Nature of the series: 72-hour cell proliferation assay and combination index analysis, MV4-11. It counts as cell-based, human. To be noted: with single sub-IC50 dose of FLT3 inhibitor Compound A (50 nM).
Series [5] has as its system Baf3-ITD cells. Nature of the series: 72-hour cell proliferation assay and combination index analysis, Baf3-ITD. The series is classed as cell-based, murine. To be noted: with single sub-IC50 dose of FLT3 inhibitor Compound A (50 nM). How it is done:
as §1, §2, §3

The structures appear in SMILES notation. Where two headings read alike, the source gives them in different places.

As to `Cn1cncc1C(N)(c1ccc(Cl)cc1)c1ccc2c(c1)c(-c1cccc(Cl)c1)cc(=O)n2C` (single isomer, unassigned; (+)) [Tipifarnib, (+)-6-[amino(4-chlorophenyl)(1-methyl-1H-imidazol-5-yl)methyl]-4-(3-chlorophenyl)-1-methyl-2(1H)-quinolinone], the overt toxicity result in series [1] (9-day treatment) and in series [1] (16-day treatment) was “No overt toxicity” throughout. In addition, the response rate in series [2] is on record as about 30%. Moreover, the “increase in potency of Tipifarnib” value in series [3], in series [4] and in series [5] was “more than 3 fold” in each case.

The values are drawn from patent US20060281755A1, “SYNERGISTIC MODULATION OF FLT3 KINASE USING AMINOPYRIMIDINES KINASE MODULATORS” (priority 2005, published 2006).
